Test results published in US11547112B2, “Solvents for agricultural applications and pesticide formulations” (Dow Global Technologies LLC, priority 2017, dated 2023).

Assay: Solubility of pesticides in solvents (stepwise 2% increments of pesticide powder)
Details: highest concentration still dissolved, no more than 2% lower than actual solubility; for Solubility in Comparative Solvent B: solvent: diethylene glycol monoethyl ether; for Solubility in Comparative Solvent A: solvent: dimethyl sulfoxide (DMSO); for Solubility in Comparative Solvent C: solvent: ethyl 3-ethoxypropionate
Protocol: The solubility of various pesticides in these solvents are evaluated.
Each pesticide powder is added by solvent in 2% stepwise increments to the final pesticide concentration. Each pesticide reaches a concentration where the pesticide powder is not dissolved by the solvent.

SMILES | Solubility in Comparative Solvent B | Solubility in Comparative Solvent A | Solubility in Comparative Solvent C
CC(C)(C)C(=O)C(Oc1ccc(Cl)cc1)n1cncn1 (stereo not drawn) [Triazolone] | 35.7 weight % | 43.3 weight % | 32.0 weight %
CCCCC(C#N)(Cn1cncn1)c1ccc(Cl)cc1 (stereo not drawn) [Myclobutanil] | 46.0 weight % | 56.7 weight % | 39.0 weight %
CC(C)(C)C(O)(CCc1ccc(Cl)cc1)Cn1cncn1 (stereo not drawn) [Tebuconazole] | 26.5 weight % | 32.3 weight % | 16.0 weight %
COC(=O)N(OC)c1ccccc1COc1ccn(-c2ccc(Cl)cc2)n1 [Pyraclostrobin] | 33.0 weight % | 40.0 weight % | 47.0 weight %
